ChEMBL document CHEMBL1126278, “New neplanocin analogues. 1. Synthesis of 6'-modified neplanocin A derivatives as broad-spectrum antiviral agents” (J Med Chem, 1992)
In brackets after ≈: the same amount, converted by molar mass.

Tests used:
[1] = system: HeLa; experiment: Inhibitory effect on replication of RNA virus coxsB-4 in HeLa cell line.; type: functional, cell-based; details: Homo sapiens
[2] = system: HEL; experiment: Inhibitory effect on replication of DNA virus TK-VZV (YSR) on HEL cell line.; type: functional, cell-based; details: Homo sapiens
[3] = system: ESM; experiment: Inhibitory effect on replication of DNA virus TK-HSV-1 (B2006) on ESM cell line.; type: functional, cell-based
[4] = system: Vero; experiment: Inhibitory effect on replication of RNA virus SFV in Vero cell line; type: functional, cell-based; details: Chlorocebus sabaeus
[5] = system: MT4; experiment: Inhibitory effect on replication of RNA virus cell growth in MT-4 cell line.; type: functional, cell-based; details: Homo sapiens
[6] = system: HEL; experiment: Inhibitory effect on replication of DNA virus CMV (AD-169) on HEL cell line.; type: functional, cell-based; details: Homo sapiens
[7] = system: HEL; experiment: Inhibitory effect on replication of DNA virus CMV (Davis) on HEL cell line.; type: functional, cell-based; details: Homo sapiens
[8] = system: HEL; experiment: Inhibitory effect on replication of DNA virus VZV (Oka) on HEL cell line.; type: functional, cell-based; details: Homo sapiens
[9] = system: PRK; experiment: Inhibitory effect on replication of RNA virus VSV in PRK cell line.; type: functional, cell-based; details: Oryctolagus cuniculus
[10] = system: Vero; experiment: Inhibitory effect on replication of RNA virus PV-3 in Vero cell line.; type: functional, cell-based; details: Chlorocebus sabaeus
[11] = system: ESM; experiment: Inhibitory effect on replication of DNA virus VV on ESM cell line.; type: functional, cell-based
[12] = system: ESM; experiment: Inhibitory effect on replication of DNA virus HSV-1 (KOS) in ESM cell line; type: functional, cell-based
[13] = system: MDCK; experiment: cells; details: Canis lupus familiaris
[14] = system: HEL; experiment: Inhibitory effect on replication of DNA virus Cell growth on HEL cell line.; type: functional, cell-based; details: Homo sapiens
[15] = system: ESM; experiment: Inhibitory effect on replication of RNA virus cell morphology in ESM cell line.; type: functional, cell-based
[16] = system: MDCK; experiment: Inhibitory effect on replication of RNA virus cell morphology in MDCK cell line.; type: functional, cell-based; details: Canis lupus familiaris
[17] = system: Vero; experiment: Inhibitory effect on replication of RNA virus reo-1 in Vero cell line.; type: functional, cell-based; details: Chlorocebus sabaeus
[18] = system: ESM; experiment: Inhibitory effect on replication of DNA virus Cell morphology on ESM cell line; type: functional, cell-based
[19] = Inhibitory effect on replication of DNA virus HSV-1 (KOS) in PRK cell line.; type: functional, cell-based; details: Oryctolagus cuniculus
[20] = system: PRK; experiment: Inhibitory effect on replication of RNA virus cell morphology in PRK cell line.; type: functional, cell-based; details: Oryctolagus cuniculus
[21] = system: HeLa; experiment: Inhibitory effect on replication of RNA virus RSV in HeLa cell line; type: functional, cell-based; details: Homo sapiens
[22] = system: HEL; experiment: Inhibitory effect on replication of DNA virus TK-VZV (07-1) on HEL cell line.; type: functional, cell-based; details: Homo sapiens
[23] = system: Vero; experiment: Inhibitory effect on replication of RNA virus SV in Vero cell line.; type: functional, cell-based; details: Chlorocebus sabaeus
[24] = system: MT4; experiment: Inhibitory effect on replication of RNA virus HIV-2 in MT-4 cell line.; type: functional, cell-based; details: Homo sapiens
[25] = system: MDCK; experiment: cells; details: Canis lupus familiaris; remark: listed apart in the source
[26] = system: Vero; experiment: Inhibitory effect on replication of RNA virus JV in Vero cell line.; type: functional, cell-based; details: Chlorocebus sabaeus
[27] = system: MT4; experiment: Inhibitory effect on replication of RNA virus HIV-1 in MT-4 cell line.; type: functional, cell-based; details: Homo sapiens
[28] = Inhibitory effect on replication of DNA virus HSV-2 (G) in PRK cell line.; type: functional, cell-based; details: Oryctolagus cuniculus
[29] = system: ESM; experiment: Inhibitory effect on replication of DNA virus HSV-2 (G) in ESM cell line; type: functional, cell-based
[30] = system: ESM; experiment: Inhibitory effect on replication of DNA virus TK-HSV-1 (VMW 1837) on ESM cell line.; type: functional, cell-based
[31] = system: Vero; experiment: Inhibitory effect on replication of RNA virus protein synthesis in Vero cell line.; type: functional, cell-based; details: Chlorocebus sabaeus
[32] = system: Vero; experiment: Inhibitory effect on replication of RNA virus measles on Vero cell line.; type: functional, cell-based; details: Chlorocebus sabaeus
[33] = system: HeLa; experiment: cells; details: Homo sapiens
[34] = system: Vero; experiment: Inhibitory effect on replication of RNA virus coxsB-4 in Vero cell line; type: functional, cell-based; details: Chlorocebus sabaeus
[35] = system: HeLa; experiment: Inhibitory effect on replication of RNA virus cell morphology in HeLa cell line.; type: functional, cell-based; details: Homo sapiens
[36] = system: Vero; experiment: Inhibitory effect on replication of RNA virus RNA synthesis in Vero cell line.; type: functional, cell-based; details: Chlorocebus sabaeus
[37] = system: PRK; experiment: Inhibitory effect on replication of DNA virus VV on PRK cell line.; type: functional, cell-based; details: Oryctolagus cuniculus
[38] = system: PRK; experiment: Inhibitory effect on replication of DNA virus Cell morphology on PRK cell line; type: functional, cell-based; details: Oryctolagus cuniculus
[39] = system: Vero; experiment: Inhibitory effect on replication of RNA virus TV in Vero cell line.; type: functional, cell-based; details: Chlorocebus sabaeus
[40] = system: Vero; experiment: Inhibitory effect on replication of RNA virus cell morphology in Vero cell line.; type: functional, cell-based; details: Chlorocebus sabaeus
[41] = system: HEL; experiment: Inhibitory effect on replication of DNA virus VZV (YS) on HEL cell line.; type: functional, cell-based; details: Homo sapiens
[42] = system: Vero; experiment: Inhibitory effect on replication of virus protein synthesis in Vero cell line.; type: functional, cell-based; details: Chlorocebus sabaeus

C[C@H](O)C1=C[C@@H](n2cnc3c(N)ncnc32)[C@H](O)[C@@H]1O
IC50 [1]: > 400 µg/mL | IC50 [2]: 39 µg/mL (≈ 141 µM) | IC50 [3]: > 400 µg/mL | IC50 [4]: > 400 µg/mL | IC50 [5]: > 100 µg/mL | IC50 [6]: 15 µg/mL (≈ 54.1 µM) | IC50 [7]: 9 µg/mL (≈ 32.5 µM) | IC50 [8]: 100 µg/mL (≈ 361 µM) | IC50 [9]: 70 µg/mL (≈ 252 µM) | IC50 [10]: 100 µg/mL (≈ 361 µM) | IC50 [11]: 40 µg/mL (≈ 144 µM) | IC50 [12]: > 400 µg/mL | IC50 [13]: > 100 µg/mL | IC50 [14]: 132 µg/mL (≈ 476 µM) | IC50 [15]: > 400 µg/mL | IC50 [16]: > 100 µg/mL | IC50 [17]: 40 µg/mL (≈ 144 µM) | IC50 [18]: > 400 µg/mL | IC50 [19]: > 400 µg/mL | IC50 [20]: > 400 µg/mL | IC50 [21]: > 100 µg/mL | IC50 [22]: 76 µg/mL (≈ 274 µM) | IC50 [23]: 150 µg/mL (≈ 541 µM) | IC50 [24]: > 100 µg/mL | IC50 [25]: > 100 µg/mL | IC50 [26]: 45 µg/mL (≈ 162 µM) | IC50 [27]: > 100 µg/mL | IC50 [28]: > 200 µg/mL | IC50 [29]: > 400 µg/mL | IC50 [30]: > 400 µg/mL | IC50 [31]: > 190 µg/mL | IC50 [32]: > 100 µg/mL | IC50 [33]: > 400 µg/mL | IC50 [34]: > 200 µg/mL | IC50 [35]: > 400 µg/mL | IC50 [36]: 36 µg/mL (≈ 130 µM) | IC50 [37]: 70 µg/mL (≈ 252 µM) | IC50 [38]: > 400 µg/mL | IC50 [39]: 55 µg/mL (≈ 198 µM) | IC50 [40]: > 400 µg/mL

Nc1ncnc2c1ncn2[C@@H]1C=C(CCl)[C@@H](O)[C@H]1O
IC50 [1]: > 40 µg/mL | IC50 [2]: 2 µg/mL (≈ 7.1 µM) | IC50 [4]: > 40 µg/mL | IC50 [5]: 0.2 µg/mL (≈ 0.71 µM) | IC50 [6]: 2 µg/mL (≈ 7.1 µM) | IC50 [7]: 0.7 µg/mL (≈ 2.48 µM) | IC50 [8]: 2.5 µg/mL (≈ 8.87 µM) | IC50 [9]: 0.7 µg/mL (≈ 2.48 µM) | IC50 [10]: 7 µg/mL (≈ 24.8 µM) | IC50 [41]: 2 µg/mL (≈ 7.1 µM) | IC50 [13]: > 10 µg/mL | IC50 [14]: 9 µg/mL (≈ 31.9 µM) | IC50 [16]: 10 µg/mL (≈ 35.5 µM) | IC50 [17]: 0.7 µg/mL (≈ 2.48 µM) | IC50 [19]: > 20 µg/mL | IC50 [20]: 40 µg/mL (≈ 142 µM) | IC50 [21]: 0.8 µg/mL (≈ 2.84 µM) | IC50 [22]: 1 µg/mL (≈ 3.55 µM) | IC50 [23]: > 40 µg/mL | IC50 [25]: > 10 µg/mL | IC50 [26]: 2 µg/mL (≈ 7.1 µM) | IC50 [42]: 5 µg/mL (≈ 17.7 µM) | IC50 [27]: > 0.06 µg/mL | IC50 [28]: > 20 µg/mL | IC50 [31]: 0.8 µg/mL (≈ 2.84 µM) | IC50 [32]: 0.8 µg/mL (≈ 2.84 µM) | IC50 [33]: > 40 µg/mL | IC50 [34]: > 40 µg/mL | IC50 [38]: 40 µg/mL (≈ 142 µM) | IC50 [39]: 2 µg/mL (≈ 7.1 µM) | IC50 [40]: 40 µg/mL (≈ 142 µM)
